# Assay results reported in patent US20070238660A1 (priority 2006, published 2007).
# System: viruses
# Assay: Virus inactivation by fabric with attached dye under illumination
# Format: cell-based
# Details: for virus inactivation (in words): low light illumination levels, FIG. 4
smiles,measurement,setting,value
Cc1cc2cc3cc(C)c(N)cc3nc2cc1N.Cl [acridine yellow G],viruses inactivated,exposure to light as low as 500 Lux,at least 99%
same,virus inactivation (in words),,unexpected efficiency in virus inactivation
same,virus inactivation (in words),listed as Acridine yellow G,very high virus inactivation
